Patent US10329304B2, “Compounds and methods for inhibition of hedgehog signaling and phosphodiesterase” (Vanderbilt University, priority 2014, dated 2019)
“Also recorded” adds a separate entry of the source. Where two headings read alike, the source gives them in different places.

Key:
[1] = test system: Hedgehog signaling (TM3-Gli-Luc); assay: TM3-Gli-Luc luciferase reporter assay stimulated with 20 nM SAG; type: cell-based; details: for EC50: read-out: TM3-Gli-Luc EC50
Method in brief: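 Luciferase read-out divided by CellTiter-Glo viability, minus DMSO/no-SAG baseline, expressed relative to 20 nM SAG alone. Cells exposed to compound with SAG for 48 h at 37 °C in 2.5% FBS DMEM/F12 on gelatin. EC50 ±SEM from at least two separate-day runs.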

TM3-Gli-Luc cells = assay: TM3-Gli-Luc cell viability (Cell Titer Glo, LD50); type: cell-based
Description: On the day of cell plating, 96-well plates were coated with 50 μL/well of sterile 0.1% gelatin for 5 minutes then aspirated and replaced with 50 μL/well of TM3 Culture Medium. TM3-Gli-Luc cells were seeded at a density of 5,000 cells/well in TM3 Culture Medium and incubated for 24 hours. A master mix of 20 nM SAG in TM3Luc Medium was prepared, and small molecule solutions were prepared by adding the desired amount of compound from 10 mM DMSO stock to TM3Luc Medium containing 20 nM SAG. Negative control was prepared by adding an equi-volume amount of DMSO as compared to small molecule treated conditions to TM3Luc Medium not containing SAG. Cell plating medium was aspirated and replaced with 100 μL/well of prepared small molecule-containing media, and plates were incubated for 48 hours before proceeding to luciferase activity and cell viability reading.
TM3Luc Medium from compound treated plates was aspirated and replaced with 82 μL/well of Glo Lysis Buffer (Promega, Madison, Wis., USA), and plates were shaken at 300 rpm and room temperature for 12 minutes. Lysate was split between two white 96-well plates, 45 μL/well and 25 μL/well for luciferase reading and cell viability respectively. For luciferase activity monitoring, 45 μL/well of Steady Glo (Promega, Madison, Wis., USA) was added to 45 μL/well of cell lysate, incubated at room temperature for 5 minutes, then luminescence was measured on a Turner Biosystems Modulus Microplate Reader (Sunnyvale, Calif., USA) with an integration time of 0.5 seconds. For cell viability measurement, 25 μL/well of Cell Titer Glo (Promega, Madison, Wis., USA) (prepared by 1:10 dilution with Glo Lysis Buffer) was added to 25 μL/well of cell lysate, incubated at room temperature for 5 minutes, then luminescence was measured as above.
All raw data was divided by the average of positive control cell titer data to arrive at percent cells remaining compared to positive control. […] At least two independent assays tested on separate days were averaged to provide LD50±standard error of the mean.

Gli1 transcription = assay: Sufu−/− mouse embryonic fibroblasts qRT-PCR; type: cell-based
Excerpt: (§1) In light of EGM1's ability to halt Hh transcriptional activity at a node downstream of the negative regulator Sufu, and thus also downstream of Smo, we sought to confirm mode of action retention with our most promising analogs. Therefore, we employed Sufu−/− mouse embryonic fibroblasts (MEF) that display constitutively active transcription of Hh target genes Gli1 and Ptch1 and monitored the ability of our optimized analogs to repress signaling via quantitative reverse transcription-PCR (qRT-PCR). […] We then evaluated improved analogs from multiple structural classes including those from Table 1 with cyclohexylthiophene cores as well as from Table 13 with structurally distinct core modifications.
(§2) Sufu^−/− cells were seeded into 12-well plates at a density of 100,000 cells/well in D10 FBS and incubated for 24 hours. Small molecule solutions were prepared by adding the desired amount of compound from 10 mM DMSO stock to D0.5 FBS. Negative control was prepared by adding an equi-volume amount of DMSO to D0.5 FBS as compared to small molecule treated conditions. Cell plating medium was aspirated and replaced with 1 mL of prepared small molecule-containing media, and plates were incubated for 24 hours before proceeding to RNA isolation.
(§3) Cells were washed 1× with 1× phosphate-buffered saline (PBS) then RNA was isolated using the Qiagen RNeasy Mini Kit (Qiagen, Germantown, Md., USA) according to the manufacturer's protocol, eluting RNA from the spin column with 30 μL of RNase-free water. RNA was placed on ice and immediately subjected to reverse transcription. Remaining RNA was stored at −80° C.
(§4) Reverse transcription polymerase chain reaction (RT-PCR) was performed with the Applied Biosystems High Capacity cDNA Reverse Transcription Kit (ThermoFisher Scientific, Waltham, Mass., USA) using an Eppendorf MasterCycler. Each 20 μL reaction contained 0.5 μg of total RNA, 2 μL of 10×RT Buffer, 0.8 μL of 25×dNTP Mix (100 mM), 2 μL of 10×RT Random Primers, 1 μL of MultiScribe® Reverse Transcriptase (50 U/μL), 1 μL of Recombinant RNasin® Ribonuclease Inhibitor (40 U/μL) (Promega, Madison, Wis., USA), and nuclease-free water. Reverse transcription was performed with the following program: 25° C. for 10 minutes, 37° C. for 120 minutes, and 85° C. for 5 minutes. The cDNA was subjected to quantitative real-time PCR (Q-PCR) or stored at −20° C.
(§5) Quantitative real-time PCR was performed on an Applied Biosystems 7900 HT Fast Real Time PCR System in 384-well format. Each cDNA sample was assayed in triplicate with both probe of interest and control probe. Master mixes for each probe were prepared corresponding to 10 μL of Applied Biosystems TaqMan Universal PCR Master Mix (ThermoFisher Scientific, Waltham, Mass., USA), 1 μL of primer, and nuclease-free water corresponding to a volume providing 20 μL reactions when loading an average of 50 ng of cDNA. Quantitative real-time PCR was run with the following thermal cycling protocol: 50° C. for 2 min., 95° C. for 10 min., and 40 cycles of 95° C. for 15 seconds, 60° C. for 1 min., then fluorescence reading. The following FAM probes were purchased from Life Technologies (Carlsbad, Calif., USA): mouse GAPDH, Mm99999915_g1; mouse Gli1, Mm00494646_g1; mouse Ptch1, Mm01306905_m1.
(§6) Quantitative real-time PCR data for Hh signaling inhibition was quantitated using the ΔΔCt method. Control probe values were subtracted from probe of interest values to arrive at the ΔCt value. The ΔCt value was transformed by 2-^ΔCt to arrive at the ΔΔCt value. All ΔΔCt values were divided by the average negative control ΔΔCt value to provide percent Hh signaling activity. Percent inhibition values were derived by calculating the inverse of percent activity. Data is reported as mean±standard error of the mean (SEM), representing at least two biological replicates, each quantitated in triplicate.

Ptch1 transcription = assay: Sufu−/− mouse embryonic fibroblasts qRT-PCR; type: cell-based
Excerpt: as §1, §2, §3, §4, §5, §6

[2] = Lipophilic efficiency (LipE = pEC50 − cLogP) and cLogP
Method in brief: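 pEC50 came from TM3-Gli-Luc Gli-responsive luciferase reporter cells stimulated with 20 nM SAG, with non-specific cytotoxicity monitored in parallel. LipE was calculated by subtracting cLogP from pEC50.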

[3] = test system: Hedgehog signaling (Gli-Luc reporter); details: read-out: reported EC50 in the Shh-LIGHT2 reporter line; cited from earlier work
Hh signaling = Hh signaling inhibition (assay not named, data not shown); type: cell-based
[4] = test system: Hedgehog signaling (Gli-Luc reporter); assay: Hh Gli-Luciferase reporter assay in Shh-Light2 cells; type: cell-based, mouse; details: Shh-conditioned media
Method in brief: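 Steady-Glo luminescence, corrected for cell titer by CellTiter-Glo, was measured after overnight exposure to compound concentrations. Signaling in Gli-Luc Shh-Light2 cells came either from Shh-conditioned medium, 3 μM purmorphamine or 20 nM SAG, or from transfected Gli-2, PDE4D3 or DN-PDE4D3 constructs.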

[5] = test system: total cellular cAMP levels; assay: cAMP assay (total cellular cAMP, EIA chemiluminescence); type: cell-based
Description: Shh-Light2 cells were seeded in a 96-well plate and incubated overnight. Varying concentrations of Rolipram or Eggmanone (0.013 uM-30 uM) or DMSO only were added to the cells in the absence of serum and incubated 30 minutes, at which time forskolin was added for a final concentration of 1 uM. After an additional 15 minutes, cells were washed with PBS and assayed for cAMP levels using EIA based chemiluminescence kit according to the manufacturer's protocol (Cell Signaling Technologies, Danvers, Mass.).

mouse aorta = assay: Myography of cannulated mouse aorta
Excerpt: For myography, to test the vascular tone for presense of downstream or off target effects, mouse aorta was mounted and cannulated on a closed system. A physiological buffer (with respect to pH, CO2, and temperature) was circulated through the vessel.

PKA activation = assay: Immunostaining of autophosphorylated PKA catalytic subunit in NIH3T3 cells; type: cell-based; details: SAG-stimulated NIH3T3 cells, Egm 5 μM, Rolipram 10 μM
Description: NIH3T3 cells were plated on Poly-D-Lysine-coated glass coverslips and were cultured at 37° C., 5% CO2 in DMEM medium containing 10% fetal bovine serum until reaching 75% confluency. For one set of experiments, cells were then transfected with VSV-tagged PDE4D3 plasmid (gift from Miles Houslay, University of Glasgow, Scotland, UK) using Fugene6 transfection reagent (Roche, Indianapolis, Ind.) per manufacturer's protocol. Afterward, cell medium was replaced with DMEM/0.5% FBS containing either 5 μM eggmanone or DMSO and incubated overnight at 37° C., 5% CO2. Cells were fixed in 4% PFA at room temperature for 10 minutes prior to permeabilization, blocking, and staining with primary antibodies against Arl13b (gift of Tamary Caspary, Emory University, Atlanta, Ga.) and VSV (AbCam, Cambridge, Mass.). Fluorescent immunocytochemistry was performed using species-specific, secondary antibodies (Jackson Immunoresearch, West Grove, Pa.). For additional immunocytochemistry experiment, cells were treated with 20 nM SAG in the presence or absence of 5 uM Eggmanone. After overnight incubation, cells were washed with PBS, fixed for 10 minutes in 4% PFA, permeabilized 20 minutes at −20C with cold methanol, blocked with PBS/1% BSA, and incubated with primary antibodies to phospho-PKA catalytic domain Thr197 (Cell Signaling, Danvers, Mass.) and then to Arl13b. An additional overnight blocking step using unconjugated rabbit IgG was required between primary antibody incubations since both antibodies were produced in rabbit. Fluorescent conjugated secondary antibodies were used for visualization. Data analysis was performed in part through the use of the VUMC Cell Imaging Shared Resource.
Using ImageJ software (National Institutes of Health, developed by W. Rasband), a region of interest was created using the magic wand tool on Arl13b channel and transposed to the Gli2 channel, and integrated density was measured and reported as arbitrary units (a.u.). For phospho-PKA, using ImageJ, a line selection tool was used to select a line projected through the length of the primary cilia and an equal length beyond. The intensity values were potted and the cumulative florescence (area under the curve) was calculated for three cilia, blindly, for each treatment. These values for cilia and pericilia domain were analyzed by a two tailed students t-test. For correlation analysis, correlation coefficient for intensity of gamma-tubulin and phosphor-PKA were calculated and compared among treatments with students t-test.

cAMP = assay: FRET-based cAMP sensors in NIH3T3 cells; type: cell-based; details: 2 μM
Excerpt: To visualize changes in cAMP concentrations in individual cells and cellular regions, we utilized two distinct FRET (fluorescence resonance energy transfer)-based cAMP sensors: the Epac-FRET sensor (mTurquoiseΔ-Epac(CD, ΔDEP)-cp173 Venus-Venus)^35, which detects cytosolic cAMP concentration and the PKA-based cAMP sensor (PKAC-YFP and PKARII-CFP combination), which has been used to document changes in local cAMP levels in the centrosome and basal body.

[6] = Sufu−/− MEF, qRT-PCR, compounds tested at 10 μM, normalized to DMSO, mean ± SEM

## CN(C)c1ccccc1CN1CCCN(Cc2ccccc2N(C)C)C1c1ccncc1 [GANT-61, reference compound]
[1]; 20 nM SAG
  Hh inhibitory activity / potency in words: slightly higher than the reported
[1]; 20 nM SAG, mean ± standard error of the mean
  EC50: 9.27 ± 1.8 µM
[1]; TM3-Gli-Luc reporter line stimulated with 20 nM SAG, mean ± SEM, Table 14
  EC50: 9.27 ± 1.8 µM
TM3-Gli-Luc cells
  TM3-Gli-Luc LD50: >50 µM
Gli1 transcription; 10 μM
  inhibition of Gli1 transcription: approximately 50%
Gli1 transcription; [6]
  Sufu−/− % Inh. Gil1 mRNA: 43.8 ± 5.2%
Ptch1 transcription; 10 μM
  inhibition of Ptch1 transcription: approximately 50%
Ptch1 transcription; [6]
  Sufu−/− % Inh. Ptch1 mRNA: 52.8 ± 2.7%
[2]; Calculated as pEC50 - cLogP, Molinspiration Cheminformatics
  LipE: 1.34
[2]; pEC50 - cLogP, Table 14
  LipE: 1.34
[3]
  EC50: ~5 µM

## O=C(Nc1c(Cl)cncc1Cl)c1ccc(OC(F)F)c(OCC2CC2)c1 [Roflumilast]
Hh signaling
  Potency for Hh signaling inhibition: micromolar potency

## COc1ccc(C2CNC(=O)C2)cc1OC1CCCC1 (centres unmarked) [rolipram, reference compound]
[4]
  Sonic hedgehog (SHH)-responsive Gli-luciferase reporter activity: did not bring the reporter activity down to the baseline even at very high concentrations
[4]; listed as Rolipram
  Sonic hedgehog (SHH)-responsive Gli-luciferase reporter activity: incomplete even at high concentrations
[5]
  Total cellular cAMP levels: substantially; also recorded: elicited robust cAMP accumulation
[5]; listed as Rolipram
  Total cellular cAMP levels: increased total cellular cAMP levels
Mouse aorta
  Vessel diameter after pre-constriction: caused the vessel to dilate
PKA activation
  PKA activation (phospho-PKA-C staining), spatial distribution: more diffuse increase in cytoplasmic phospho-PKA levels; also recorded: more diffuse increase in phospho-PKA staining
PKA activation; listed as Rolipram
  PKA activation (phospho-PKA-C staining), spatial distribution: increases PKA activation more diffusely
cAMP
  Cytosolic FRET signal (Epac-FRET sensor): significantly increased the FRET signal throughout the cell
